Assay results: the supplement of paper PMC10883282
± gives the standard deviation of the averaged measurements.

Tested on: HT1080
Experiment: relative viability vs DMSO control (72 h) (fraction); higher = more viable cells
How it was run: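 Percent growth from ATPLite readings, averaged over up to triplicate wells, was used as relative viability. Sarcoma cell lines were seeded into 384-well plates for 80–90% confluence, dosed after 24 h, and kept 72 h at 37 °C, 5% CO2. Data were rescaled to a range where 1 is full and 0 is none.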

With `CCc1cc2c(cc1N1CCC(N3CCOCC3)CC1)C(C)(C)c1[nH]c3cc(C#N)ccc3c1C2=O` [Alectinib] the relative viability (0.00017 µM) was 1.07 ± 0.018, the relative viability (0.00051 µM) was 1.09 ± 0.0051 and the relative viability (0.00152 µM) was 1.06 ± 0.032. It also gave a relative viability (0.00457 µM) of 1.09 ± 0.014, a relative viability (0.01372 µM) of 1.077 ± 0.0047 and a relative viability (0.04115 µM) of 1.11 ± 0.045. For the same compound, the relative viability (0.1235 µM) was 1.08 ± 0.02, the relative viability (0.3704 µM) was 1.11 ± 0.028 and the relative viability (1.111 µM) was 1.07 ± 0.024. The relative viability (3.333 µM) was 1.07 ± 0.047 and the relative viability (10 µM) was 1.02 ± 0.051.
Compound `COCc1c(-c2cc3cc(C)cc(OC)c3s2)c2c(N)ncnn2c1CN1CCNC(=O)C1` [Rogaratinib] has a relative viability (0.00017 µM) of 1.08 ± 0.023, a relative viability (0.00051 µM) of 1.09 ± 0.041 and a relative viability (0.00152 µM) of 1.07 ± 0.028. For the same compound, the relative viability (0.00457 µM) was 1.038 ± 0.0047, the relative viability (0.01372 µM) was 1.05 ± 0.013 and the relative viability (0.04115 µM) was 1.06 ± 0.017. It also gave a relative viability (0.1235 µM) of 1.05 ± 0.017, a relative viability (0.3704 µM) of 1.07 ± 0.04 and a relative viability (1.111 µM) of 1.084 ± 0.0066. For the same compound, the relative viability (3.333 µM) was 1.09 ± 0.024 and the relative viability (10 µM) was 1.06 ± 0.032.
`C[C@@H]1CCN(C(=O)CC#N)C[C@@H]1N(C)c1ncnc2[nH]ccc12` [Tofacitinib] gave a relative viability (0.00017 µM) of 1.06 ± 0.044, a relative viability (0.00051 µM) of 1.1 ± 0.035 and a relative viability (0.00152 µM) of 1.07 ± 0.025. It also gave a relative viability (0.00457 µM) of 1.077 ± 0.0086, a relative viability (0.01372 µM) of 1.1 ± 0.022 and a relative viability (0.04115 µM) of 1.08 ± 0.018. It also gave a relative viability (0.1235 µM) of 1.08 ± 0.085, a relative viability (0.3704 µM) of 1.1 ± 0.04 and a relative viability (1.111 µM) of 1.07 ± 0.012. For the same compound, the relative viability (3.333 µM) was 1.03 ± 0.027 and the relative viability (10 µM) was 1.02 ± 0.024.
With `O=C(Cc1ccc(-c2ccc(OCCN3CCOCC3)cc2)cn1)NCc1ccccc1` [KX2-391] the relative viability (0.00017 µM) was 1.07 ± 0.025, the relative viability (0.00051 µM) was 1.1 ± 0.013 and the relative viability (0.00152 µM) was 1.11 ± 0.019. For the same compound, the relative viability (0.00457 µM) was 1.1 ± 0.033, the relative viability (0.01372 µM) was 1.06 ± 0.013 and the relative viability (0.04115 µM) was 1.06 ± 0.022. For the same compound, the relative viability (0.1235 µM) was 0.117 ± 0.0064, the relative viability (0.3704 µM) was 0.0565 ± 0.0006 and the relative viability (1.111 µM) was 0.0434 ± 0.0068. The relative viability (3.333 µM) was 0.0333 ± 0.0026 and the relative viability (10 µM) was 0.0365 ± 0.0027.
For `C[C@@H](c1ccc2nccn2c1)n1nnc2ncc(-c3cnn(C)c3)nc21` [Volitinib], the relative viability (0.00017 µM) was 1.02 ± 0.043, the relative viability (0.00051 µM) was 1.06 ± 0.016 and the relative viability (0.00152 µM) was 1.07 ± 0.02. For the same compound, the relative viability (0.00457 µM) was 1.06 ± 0.031, the relative viability (0.01372 µM) was 1.06 ± 0.029 and the relative viability (0.04115 µM) was 1.04 ± 0.011. For the same compound, the relative viability (0.1235 µM) was 1.02 ± 0.022, the relative viability (0.3704 µM) was 1.05 ± 0.034 and the relative viability (1.111 µM) was 1.06 ± 0.012. For the same compound, the relative viability (3.333 µM) was 0.992 ± 0.016 and the relative viability (10 µM) was 0.948 ± 0.053.
`C[C@]1(O)C[C@@H](c2nc(-c3ccc4ccc(-c5ccccc5)nc4c3)c3c(N)nccn32)C1` [Linsitinib] showed a relative viability (0.00017 µM) of 1.044 ± 0.0049, a relative viability (0.00051 µM) of 1.09 ± 0.025 and a relative viability (0.00152 µM) of 1.045 ± 0.0029. For the same compound, the relative viability (0.00457 µM) was 1.057 ± 0.009, the relative viability (0.01372 µM) was 1.04 ± 0.047 and the relative viability (0.04115 µM) was 1.03 ± 0.018. The relative viability (0.1235 µM) was 1.03 ± 0.023, the relative viability (0.3704 µM) was 0.988 ± 0.025 and the relative viability (1.111 µM) was 0.968 ± 0.043. The relative viability (3.333 µM) was 0.968 ± 0.025 and the relative viability (10 µM) was 0.881 ± 0.017.
In the case of `COc1cc2c(Oc3ccc4[nH]c(C)cc4c3F)ncnc2cc1OCCCN1CCCC1` [Cediranib], the relative viability (0.00017 µM) is reported as 1.08 ± 0.022, the relative viability (0.00051 µM) is reported as 1.08 ± 0.015 and the relative viability (0.00152 µM) is reported as 1.06 ± 0.011. The relative viability (0.00457 µM) was 1.095 ± 0.0091, the relative viability (0.01372 µM) was 1.1 ± 0.011 and the relative viability (0.04115 µM) was 1.07 ± 0.031. The relative viability (0.1235 µM) was 1.08 ± 0.016, the relative viability (0.3704 µM) was 1.1 ± 0.015 and the relative viability (1.111 µM) was 1.1 ± 0.027. For the same compound, the relative viability (3.333 µM) was 1.08 ± 0.035 and the relative viability (10 µM) was 1.06 ± 0.024.
In the case of `CC(C)(C)c1cc(NC(=O)Nc2ccc(-c3cn4c(n3)sc3cc(OCCN5CCOCC5)ccc34)cc2)no1` [Quizartinib], the relative viability (0.00017 µM) is reported as 1.12 ± 0.013, the relative viability (0.00051 µM) is reported as 1.09 ± 0.016 and the relative viability (0.00152 µM) is reported as 1.087 ± 0.0076. The relative viability (0.00457 µM) was 1.08 ± 0.029, the relative viability (0.01372 µM) was 1.07 ± 0.014 and the relative viability (0.04115 µM) was 1.11 ± 0.034. The relative viability (0.1235 µM) was 1.1 ± 0.035, the relative viability (0.3704 µM) was 1.11 ± 0.012 and the relative viability (1.111 µM) was 1.04 ± 0.042. The relative viability (3.333 µM) was 0.907 ± 0.048 and the relative viability (10 µM) was 0.806 ± 0.042.
Compound `COc1cc2/c(=N/c3ccc(Br)cc3F)nc[nH]c2cc1OCC1CCN(C)CC1` [Vandetanib] has a relative viability (0.00017 µM) of 1.02 ± 0.015, a relative viability (0.00051 µM) of 1.02 ± 0.026 and a relative viability (0.00152 µM) of 1.03 ± 0.026. For the same compound, the relative viability (0.00457 µM) was 1.03 ± 0.022, the relative viability (0.01372 µM) was 1.03 ± 0.026 and the relative viability (0.04115 µM) was 1.02 ± 0.034. The relative viability (0.1235 µM) was 1.02 ± 0.043, the relative viability (0.3704 µM) was 1.03 ± 0.031 and the relative viability (1.111 µM) was 1.02 ± 0.02. It also gave a relative viability (3.333 µM) of 0.962 ± 0.04 and a relative viability (10 µM) of 0.326 ± 0.022.
With `COc1cc2c(cc1O)CCN[C@]21CS[C@@H]2c3c(OC(C)=O)c(C)c4c(c3[C@H](COC1=O)N1[C@@H]2[C@H]2c3c(cc(C)c(OC)c3O)C[C@@H]([C@@H]1O)N2C)OCO4` [Trabectedin] the relative viability (2 pM) was 1.13 ± 0.038, the relative viability (5 pM) was 1.12 ± 0.048 and the relative viability (15 pM) was 1.09 ± 0.047. For the same compound, the relative viability (50 pM) was 1.094 ± 0.0095, the relative viability (0.00014 µM) was 1.11 ± 0.031 and the relative viability (0.00041 µM) was 1.077 ± 0.0069. It also gave a relative viability (0.0012 µM) of 0.023 ± 0.0022, a relative viability (0.0037 µM) of 0.21 ± 0.0023 and a relative viability (0.011 µM) of 0.159 ± 0.005. It also gave a relative viability (200 fM) of 1.08 ± 0.032 and a relative viability (600 fM) of 1.14 ± 0.017.
Compound `Nc1cc(C(F)(F)F)c(-c2cc(N3CCOCC3)nc(N3CCOCC3)n2)cn1` [Buparlisib] has a relative viability (0.00017 µM) of 1.01 ± 0.077, a relative viability (0.00051 µM) of 1.02 ± 0.024 and a relative viability (0.00152 µM) of 1.018 ± 0.0073. The relative viability (0.00457 µM) was 1.05 ± 0.036, the relative viability (0.01372 µM) was 1.04 ± 0.015 and the relative viability (0.04115 µM) was 1.03 ± 0.022. The relative viability (0.1235 µM) was 1.03 ± 0.039, the relative viability (0.3704 µM) was 1.07 ± 0.013 and the relative viability (1.111 µM) was 1 ± 0.013. The relative viability (3.333 µM) was 0.11 ± 0.0037 and the relative viability (10 µM) was 0.0244 ± 0.0015.
Work on `CC(C)NC(=O)C1CCC(n2c(NC(=O)c3ccc(F)cc3)nc3ccc(CN4CCC(C(C)(C)O)CC4)cc32)CC1` (stereo not drawn) [Belizatinib] yielded a relative viability (0.00017 µM) of 1.079 ± 0.0088, a relative viability (0.00051 µM) of 1.09 ± 0.036 and a relative viability (0.00152 µM) of 1.05 ± 0.018. The relative viability (0.00457 µM) was 1.08 ± 0.057, the relative viability (0.01372 µM) was 1.07 ± 0.052 and the relative viability (0.04115 µM) was 1.08 ± 0.021. The relative viability (0.1235 µM) was 1.062 ± 0.0014, the relative viability (0.3704 µM) was 1.06 ± 0.069 and the relative viability (1.111 µM) was 1.03 ± 0.056. The relative viability (3.333 µM) was 0.866 ± 0.014 and the relative viability (10 µM) was 0.4946 ± 0.0036.
`N#CC[C@H](C1CCCC1)n1cc(-c2ncnc3[nH]ccc23)cn1` [Ruxolitinib] showed a relative viability (0.00017 µM) of 1.04 ± 0.037, a relative viability (0.00051 µM) of 1.034 ± 0.0099 and a relative viability (0.00152 µM) of 1.07 ± 0.012. It also gave a relative viability (0.00457 µM) of 1.05 ± 0.068, a relative viability (0.01372 µM) of 1.06 ± 0.049 and a relative viability (0.04115 µM) of 1.03 ± 0.017. It also gave a relative viability (0.1235 µM) of 1.05 ± 0.027, a relative viability (0.3704 µM) of 1.04 ± 0.04 and a relative viability (1.111 µM) of 1.04 ± 0.021. The relative viability (3.333 µM) was 1.04 ± 0.035 and the relative viability (10 µM) was 1.02 ± 0.087.
